Results: patent publication US7201896B1, “IL6RIL6 chimera for the treatment of neurodegenerative diseases” (Yeda Research and Development Company Ltd., priority 1999, dated 2007)

Assays:
[1] = test system: hippocampal organotypic slices; test: NMDA-induced cell death in hippocampal organotypic slices, propidium iodide; format: cell-based, rat; settings: 0.1 ng/ml
Experimental: The cultures were prepared as previously described by Bahr et al. (Bahr 1995) with minor modifications. Hippocampi were dissected out from eight day old Wistar rats and 400 μm thick slices were laid down on a porous and transparent Millicell-CM membrane (Millipore) and cultured in 6 wells multiwell plates. Four slices were placed on each membrane. Culture medium consisted of 50% minimal essential medium (+25 mM HEPES, +4 mM NaHCO3+NaOH pH 7.2), 25% horse serum and 25% Hanks' solution, glucose (6.4 g/l), penicillin/streptomycin (10 ml/l), L-glutamine (2 mM). Cultures were kept in a 5% CO2 incubator set at a temperature of 37° C. for at least 3 weeks before being used. Medium was changed every week.
Hippocampal slices were exposed to IL6 or to the IL6 chimera at concentrations ranging […] for 15 min, thereafter NMDA 50 μM was added for additional 30 min. […] NMDA-induced cell death was evaluated either 1 or 3–7 days after the experimental injury by incubating cultures for 1 hour in fresh medium containing propidium iodide (PI 5 μl/ml). […] The emitted red fluorescence (marker of cell death) was examined using an inverted fluorescence microscope (Zeiss) associated with an intensified charged-coupled device camera. Quantification of total fluorescence was performed by an image analysis system (Image Pro Plus).

[2] = test system: rat cerebellar granule cells; test: Glutamate-induced neurotoxicity in primary cerebellar granule cells; format: cell-based; settings: 0.1 to 10 ng/ml; glutamate 50 μM
Experimental: Activation of glutamate ionotropic receptors represents the primary event in the neurotoxicity process triggered by excitatory amino acids. Primary cultures of new born rat cerebella neurons (which contain >97% neurons) were employed for studying the effects of the IL6 chimera on glutamate-induced neurotoxicity and compared to the effects of IL-6.
Primary cultures of cerebellar granule cells were prepared from 8 day-old Sprague-Dawley rat pups as previously described (Pizzi et al. 1993). Cells were plated onto poly-L-Lysine-coated dishes and cultured in basal Eagle's medium containing 10% heat-inactivated foetal bovine serum, glutamine (2 mM), gentamicin (50 μg/ml), and KCl (25 mM), at a density of 2.5×10^5 cells/cm^2. Cytosine Arabinoside (10 μM) was added to the cultures 18 h after seeding to prevent non neuronal cell proliferation. Experiments were carried out after culturing the neurons for 10 days.
Unless otherwise indicated, cultures were exposed for 15 min to 50 μM glutamate in a Mg^2+-free Locke's solution. IL6 or the IL6 chimera were added 5 min before glutamate treatment. Dishes were then returned to cultured conditioned medium at 37° C. in 95% air/5% CO2 and cell viability was measured 18–24 hours later.
Cell viability was evaluated 18 h later by intravital staining with fluorescein diaceate and propidium iodide mixture, as previously described (Pizzi et al. 1993). […]

[3] = test system: dorsal root ganglia (DRG) explants, embryonic Schwann cells; test: Embryonic dorsal root ganglia (DRG) explant cultures: microscopy, scanning EM, anti-MBP staining; format: cell-based, mouse; settings: IL6RIL6 3 μg/ml, NGF 40 ng/ml
Experimental: In the spinal cord, the dorsal root comprises essentially sensory neurons, which form synapses in the dorsal root ganglia (DRG). During mouse embryogenesis (at day e14–e15), DRGs are a convenient source of neurons and of embryonic Schwann cells which have not yet differentiated into myelinating SC. Procedures to obtain explants of DRGs for in vitro cultures are described by Li (1998). The cultures were performed on glass coverslips placed in the wells of Costar plates, in medium F12/DMEM (Gibco). The coverslips were coated either with collagen or with poly-D-lysine, with essentially similar results. Cultures were either done in medium without growth factor or cytokine additions or in medium supplemented with nerve growth factor (NGF, 40 ng/ml), or in medium supplemented with IL6RIL6 chimeric recombinant proteins (3 μg/ml). The cultures were examined daily by light microscopy with an Olympus inverted microscope linked to a video-camera imaging system (Leica LIDA system). Part of the coverslips were fixed in paraformaldehyde and MBP proteins were labeled with monoclonal primary antibodies to myelin basic proteins and fluorescein-conjugated secondary antibody. Neuronal cell bodies and axons were stained with antibodies to neurofilament protein. Some of the coverslips were examined by scanning electron microscopy (EM).

[4] = test system: Rat sciatic nerve Schwann cell lines cells with murine DRG neurons; test: Co-culture of DRG neuronal cells with fluorogold-labeled Schwann cells; format: cell-based
Source text: By culturing murine DRG in the presence of DNA synthesis inhibitors arabinoseC (AraC) and fluorodeoxyuridine (FudR), neuronal cells can develop axons while glial cell proliferation is inhibited. These DRG cultures can be used as a source of neuronal cells with non-myelinated axons. Schwann cells are exogenously added to these cultures to study the interaction between neurons and Schwann cells.
Rat sciatic nerve Schwann cell lines cells were labeled with fluorogold, a label that penetrates the cell membrane lipid bi-layer and is maintained for an extensive period of time without affecting cell function. […] This system allows to study the various steps in the myelination process which are affected by the IL-6 chimera.

| Substance | neuronal cells protected from NMDA-induced cell death ([1]; after one day, NMDA 50 μM) | cells protected from NMDA-induced cell death ([1]; day 5) [%] | protection from glutamate-induced neurotoxicity [2] | Staining with anti-MBP [3] | Schwann cells along axons in DRG explant cultures ([3]; after 2 to 5 days) | sheath formation around the axons ([4]; after a few days) | binding of the Schwann cells along the axons ([4]; within 5 hours) |
| --- | --- | --- | --- | --- | --- | --- | --- |
| IL-6: Interleukin-6, cytokine used as comparator | approximately 50% | 30 | no protective effect | – | – | – | – |
| NGF: nerve growth factor | – | – | – | little MBP-specific fluorescence | no Schwann cells were observed along the axons | do not form a sheath | bind much less |
